Measurements as given in ChEMBL document CHEMBL5465560, “Selectivity Literature for EUbOPEN Chemogenomic Library” (2024).

What was measured:
[1] = target: T1, Casein kinase I isoform epsilon (Homo sapiens, UniProt P49674); test: Selectivity interaction (KinomeScan (DiscoverX)) EUB0000229b CSNK1E; conditions: at 10 µM
[2] = target: T2, Casein kinase I isoform alpha-like (Homo sapiens) (UniProt Q8N752); test: Selectivity interaction (KinomeScan (DiscoverX)) EUB0000229b CSNK1A1L; conditions: at 10 µM
T2 sequence (whole entry): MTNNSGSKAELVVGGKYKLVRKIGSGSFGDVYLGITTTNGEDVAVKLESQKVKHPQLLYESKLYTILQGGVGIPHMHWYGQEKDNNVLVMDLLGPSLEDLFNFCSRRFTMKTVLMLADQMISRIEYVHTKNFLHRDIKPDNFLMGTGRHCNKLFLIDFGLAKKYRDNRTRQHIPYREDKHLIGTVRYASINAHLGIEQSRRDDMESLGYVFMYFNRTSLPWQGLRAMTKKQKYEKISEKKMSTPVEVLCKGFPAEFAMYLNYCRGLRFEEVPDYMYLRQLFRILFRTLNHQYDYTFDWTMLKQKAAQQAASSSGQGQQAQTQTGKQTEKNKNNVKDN

[3] = target: Serine/threonine-protein kinase PAK 3 (Homo sapiens) (UniProt O75914); test: Selectivity interaction (KinomeScan (DiscoverX)) EUB0000092b PAK3; conditions: at 10 µM
[4] = target: 5'-AMP-activated protein kinase catalytic subunit alpha-2 (Homo sapiens) (UniProt P54646); test: Selectivity interaction (KinomeScan (DiscoverX)) EUB0000655a PRKAA2; conditions: at 10 µM
[5] = target: Death-associated protein kinase 3 (Homo sapiens) (UniProt O43293); test: Selectivity interaction (KinomeScan (DiscoverX)) EUB0000655a DAPK3; conditions: at 10 µM
[6] = target: 4-aminobutyrate aminotransferase, mitochondrial (Homo sapiens, UniProt P80404); test: Selectivity interaction (GPCR panel (PDSP screen)) EUB0001079a ABAT; conditions: at 10 µM
[7] = target: Mitogen-activated protein kinase kinase kinase 4 (Homo sapiens) (UniProt Q9Y6R4); test: Selectivity interaction (KinomeScan (DiscoverX)) EUB0000666a MAP3K4; conditions: at 10 µM
[8] = target: T3, Dual specificity mitogen-activated protein kinase kinase 6 (Homo sapiens) (UniProt P52564); test: Selectivity interaction (KinomeScan (DiscoverX)) EUB0000666a MAP2K6; conditions: at 10 µM
T3 sequence (whole entry): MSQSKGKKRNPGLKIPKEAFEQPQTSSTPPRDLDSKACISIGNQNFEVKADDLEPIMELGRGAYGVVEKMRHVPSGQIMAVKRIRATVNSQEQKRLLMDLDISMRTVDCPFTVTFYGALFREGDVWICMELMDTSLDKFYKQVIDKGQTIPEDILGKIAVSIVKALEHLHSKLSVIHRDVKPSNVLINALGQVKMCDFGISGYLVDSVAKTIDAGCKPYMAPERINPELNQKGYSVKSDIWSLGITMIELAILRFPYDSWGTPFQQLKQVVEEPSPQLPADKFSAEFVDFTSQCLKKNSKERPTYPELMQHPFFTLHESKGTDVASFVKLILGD

[9] = target: Mitogen-activated protein kinase kinase kinase 11 (Homo sapiens) (UniProt Q16584); test: Selectivity interaction (KinomeScan (DiscoverX)) EUB0000666a MAP3K11; conditions: at 10 µM
[10] = target: Cyclin-dependent kinase 9 (Homo sapiens, UniProt P50750); conditions: at 10 µM
[11] = target: T4, Cyclin-dependent kinase 11A (Homo sapiens) (UniProt Q9UQ88); test: Selectivity interaction (ActivX KiNativ screen (kinase selectivity in THP-1 cell lysates)) EUB0000639a CDK11A; format: subcellular; conditions: lysate, at 5 µM
T4 sequence (whole entry): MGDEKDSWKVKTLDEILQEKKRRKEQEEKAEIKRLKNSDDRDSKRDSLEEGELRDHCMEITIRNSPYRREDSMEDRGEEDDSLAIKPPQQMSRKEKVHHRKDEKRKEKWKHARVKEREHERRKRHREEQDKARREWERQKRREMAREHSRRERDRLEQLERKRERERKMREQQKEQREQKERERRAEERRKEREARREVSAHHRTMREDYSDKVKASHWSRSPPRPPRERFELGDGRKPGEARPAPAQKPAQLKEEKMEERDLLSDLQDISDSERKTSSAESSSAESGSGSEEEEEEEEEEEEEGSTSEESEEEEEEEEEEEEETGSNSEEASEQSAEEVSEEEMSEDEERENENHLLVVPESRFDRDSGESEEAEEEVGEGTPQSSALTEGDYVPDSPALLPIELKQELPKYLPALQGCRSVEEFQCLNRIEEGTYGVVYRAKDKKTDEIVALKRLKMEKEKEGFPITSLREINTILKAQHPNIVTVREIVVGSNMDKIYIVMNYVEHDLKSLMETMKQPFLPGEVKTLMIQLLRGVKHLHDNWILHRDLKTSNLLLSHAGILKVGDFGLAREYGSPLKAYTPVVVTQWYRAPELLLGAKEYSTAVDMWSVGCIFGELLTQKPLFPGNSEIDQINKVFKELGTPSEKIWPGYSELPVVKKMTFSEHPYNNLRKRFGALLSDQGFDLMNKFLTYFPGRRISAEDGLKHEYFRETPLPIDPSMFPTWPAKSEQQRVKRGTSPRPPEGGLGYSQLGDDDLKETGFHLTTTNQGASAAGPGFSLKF

[12] = target: Mitogen-activated protein kinase kinase kinase 11 (Homo sapiens) (UniProt Q16584); test: Selectivity interaction (ActivX KiNativ screen (kinase selectivity in THP-1 cell lysates)) EUB0000639a MAP3K11; format: subcellular; conditions: lysate, at 0.01 µM
[13] = target: Protein-tyrosine kinase 6 (Homo sapiens, UniProt Q13882); test: Selectivity interaction (KinomeScan (DiscoverX)) EUB0000045b PTK6
[14] = target: Glucocorticoid receptor (Homo sapiens) (UniProt P04150); test: Selectivity interaction (Eurofins CEREP Diversity Profile (receptors and ion channels)) EUB0000279b NR3C1; conditions: at 10 µM
[15] = target: T1, Casein kinase I isoform epsilon; test: Selectivity interaction (Ambit KINOMEscan and KiNATiv profiling in Jurkat cells) EUB0000090b CSNK1E; format: cell-based; conditions: at 1 µM
[16] = target: Serine/threonine-protein kinase PAK 6 (Homo sapiens) (UniProt Q9NQU5); test: Selectivity interaction (KinomeScan (DiscoverX)) EUB0001619a PAK6; conditions: at 1 µM
[17] = target: Mitogen-activated protein kinase 14 (Homo sapiens, UniProt Q16539); test: Selectivity interaction (ActivX KiNativ screen (ex vivo kinase selectivity in human PBMCs)) EUB0001619a MAPK14; format: cell-based; conditions: PBMC, at 1 µM
[18] = target: Ribosomal protein S6 kinase alpha-4 (Homo sapiens) (UniProt O75676); test: Selectivity interaction (KinomeScan (DiscoverX)) EUB0001619a RPS6KA4; conditions: at 1 µM

Chain of Protein-tyrosine kinase 6 (Q13882 whole entry, looked up): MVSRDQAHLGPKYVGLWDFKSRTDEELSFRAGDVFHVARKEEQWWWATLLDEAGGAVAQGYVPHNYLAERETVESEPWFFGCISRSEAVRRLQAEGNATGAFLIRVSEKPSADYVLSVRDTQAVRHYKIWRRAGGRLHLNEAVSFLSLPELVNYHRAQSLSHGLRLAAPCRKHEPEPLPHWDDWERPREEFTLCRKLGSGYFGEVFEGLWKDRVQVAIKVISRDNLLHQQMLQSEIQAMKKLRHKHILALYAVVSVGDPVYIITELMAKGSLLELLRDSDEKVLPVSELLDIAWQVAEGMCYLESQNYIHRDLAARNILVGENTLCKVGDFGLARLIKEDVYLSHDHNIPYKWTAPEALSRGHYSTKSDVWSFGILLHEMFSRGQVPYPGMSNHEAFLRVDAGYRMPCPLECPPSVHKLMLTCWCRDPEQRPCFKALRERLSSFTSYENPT
T1 sequence (P49674 whole entry, looked up, canonical isoform): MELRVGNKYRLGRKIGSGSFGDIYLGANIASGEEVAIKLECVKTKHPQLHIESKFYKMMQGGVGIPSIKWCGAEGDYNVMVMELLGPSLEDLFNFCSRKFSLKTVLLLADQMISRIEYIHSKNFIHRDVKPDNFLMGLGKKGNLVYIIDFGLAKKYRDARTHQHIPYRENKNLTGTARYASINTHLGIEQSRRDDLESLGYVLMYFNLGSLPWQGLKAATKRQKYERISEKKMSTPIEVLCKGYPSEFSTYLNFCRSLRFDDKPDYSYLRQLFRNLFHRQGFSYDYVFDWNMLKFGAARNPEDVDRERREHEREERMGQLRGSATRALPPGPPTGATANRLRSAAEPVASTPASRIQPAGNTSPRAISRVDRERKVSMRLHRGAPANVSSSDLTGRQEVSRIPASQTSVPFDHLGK
Chain of Mitogen-activated protein kinase kinase kinase 11 (Homo sapiens) (Q16584 whole entry, looked up): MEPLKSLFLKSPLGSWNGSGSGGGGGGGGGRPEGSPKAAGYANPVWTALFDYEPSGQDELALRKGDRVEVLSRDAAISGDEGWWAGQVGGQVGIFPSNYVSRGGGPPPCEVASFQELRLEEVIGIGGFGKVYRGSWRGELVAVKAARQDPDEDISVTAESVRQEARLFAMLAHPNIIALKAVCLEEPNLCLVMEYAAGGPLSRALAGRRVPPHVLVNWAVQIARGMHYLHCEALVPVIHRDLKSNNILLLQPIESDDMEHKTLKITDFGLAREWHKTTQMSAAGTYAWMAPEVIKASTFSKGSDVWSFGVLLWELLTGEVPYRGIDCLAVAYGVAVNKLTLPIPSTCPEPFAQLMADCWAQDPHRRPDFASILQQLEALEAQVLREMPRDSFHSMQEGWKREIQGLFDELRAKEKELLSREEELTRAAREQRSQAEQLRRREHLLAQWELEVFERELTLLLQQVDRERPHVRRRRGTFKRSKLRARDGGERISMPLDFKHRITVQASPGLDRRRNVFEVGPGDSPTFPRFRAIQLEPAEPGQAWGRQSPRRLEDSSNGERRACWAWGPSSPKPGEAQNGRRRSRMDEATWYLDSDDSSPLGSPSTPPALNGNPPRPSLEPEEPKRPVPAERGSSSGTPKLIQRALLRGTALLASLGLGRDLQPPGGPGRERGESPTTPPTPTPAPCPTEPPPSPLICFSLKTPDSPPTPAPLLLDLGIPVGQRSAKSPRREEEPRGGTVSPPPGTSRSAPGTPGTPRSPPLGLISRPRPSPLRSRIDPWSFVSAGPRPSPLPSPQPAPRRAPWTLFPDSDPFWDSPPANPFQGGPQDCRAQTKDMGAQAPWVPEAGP
Chain of Mitogen-activated protein kinase 14 (Q16539 whole entry): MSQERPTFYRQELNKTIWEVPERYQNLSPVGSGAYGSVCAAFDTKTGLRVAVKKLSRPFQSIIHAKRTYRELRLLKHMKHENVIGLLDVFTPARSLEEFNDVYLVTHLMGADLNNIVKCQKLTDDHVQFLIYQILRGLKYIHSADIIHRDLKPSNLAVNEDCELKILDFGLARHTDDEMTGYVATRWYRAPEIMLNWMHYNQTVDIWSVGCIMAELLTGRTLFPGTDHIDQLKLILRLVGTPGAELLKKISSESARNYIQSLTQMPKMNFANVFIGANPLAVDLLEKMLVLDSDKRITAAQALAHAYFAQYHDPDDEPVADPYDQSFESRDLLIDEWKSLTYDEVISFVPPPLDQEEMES
Chain of Death-associated protein kinase 3 (Homo sapiens) (O43293 whole entry, looked up): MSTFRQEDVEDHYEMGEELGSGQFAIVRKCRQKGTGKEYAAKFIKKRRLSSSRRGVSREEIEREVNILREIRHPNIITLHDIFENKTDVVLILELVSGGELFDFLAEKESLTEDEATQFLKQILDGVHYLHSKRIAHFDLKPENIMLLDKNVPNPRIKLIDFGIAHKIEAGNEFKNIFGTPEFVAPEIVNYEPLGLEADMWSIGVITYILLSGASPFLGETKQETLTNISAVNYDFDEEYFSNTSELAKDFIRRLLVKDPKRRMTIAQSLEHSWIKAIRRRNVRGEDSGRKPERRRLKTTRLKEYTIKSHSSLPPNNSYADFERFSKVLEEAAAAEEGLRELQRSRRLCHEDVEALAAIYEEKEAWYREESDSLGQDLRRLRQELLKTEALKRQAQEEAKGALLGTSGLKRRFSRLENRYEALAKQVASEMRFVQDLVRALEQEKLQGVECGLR
Chain of Serine/threonine-protein kinase PAK 6 (Homo sapiens) (Q9NQU5 whole entry, looked up): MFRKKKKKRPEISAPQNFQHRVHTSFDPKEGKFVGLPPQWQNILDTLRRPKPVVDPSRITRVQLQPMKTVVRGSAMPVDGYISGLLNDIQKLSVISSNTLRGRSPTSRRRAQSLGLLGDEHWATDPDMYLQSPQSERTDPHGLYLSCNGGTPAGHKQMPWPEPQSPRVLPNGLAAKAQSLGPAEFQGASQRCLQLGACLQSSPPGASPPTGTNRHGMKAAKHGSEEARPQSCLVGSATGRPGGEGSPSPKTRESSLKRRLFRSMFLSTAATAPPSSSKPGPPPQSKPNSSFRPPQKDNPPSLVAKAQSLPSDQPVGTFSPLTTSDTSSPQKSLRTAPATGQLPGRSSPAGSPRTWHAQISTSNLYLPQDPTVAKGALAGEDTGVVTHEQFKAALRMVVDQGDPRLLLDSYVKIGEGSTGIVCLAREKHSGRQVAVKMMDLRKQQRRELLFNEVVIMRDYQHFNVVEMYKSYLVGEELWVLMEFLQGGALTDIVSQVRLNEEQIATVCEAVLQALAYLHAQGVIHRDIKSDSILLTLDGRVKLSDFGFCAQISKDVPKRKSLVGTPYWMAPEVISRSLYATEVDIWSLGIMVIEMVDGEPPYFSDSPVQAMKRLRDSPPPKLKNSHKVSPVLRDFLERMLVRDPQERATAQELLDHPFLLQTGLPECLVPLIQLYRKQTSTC
Chain of Serine/threonine-protein kinase PAK 3 (Homo sapiens) (O75914 whole entry, looked up): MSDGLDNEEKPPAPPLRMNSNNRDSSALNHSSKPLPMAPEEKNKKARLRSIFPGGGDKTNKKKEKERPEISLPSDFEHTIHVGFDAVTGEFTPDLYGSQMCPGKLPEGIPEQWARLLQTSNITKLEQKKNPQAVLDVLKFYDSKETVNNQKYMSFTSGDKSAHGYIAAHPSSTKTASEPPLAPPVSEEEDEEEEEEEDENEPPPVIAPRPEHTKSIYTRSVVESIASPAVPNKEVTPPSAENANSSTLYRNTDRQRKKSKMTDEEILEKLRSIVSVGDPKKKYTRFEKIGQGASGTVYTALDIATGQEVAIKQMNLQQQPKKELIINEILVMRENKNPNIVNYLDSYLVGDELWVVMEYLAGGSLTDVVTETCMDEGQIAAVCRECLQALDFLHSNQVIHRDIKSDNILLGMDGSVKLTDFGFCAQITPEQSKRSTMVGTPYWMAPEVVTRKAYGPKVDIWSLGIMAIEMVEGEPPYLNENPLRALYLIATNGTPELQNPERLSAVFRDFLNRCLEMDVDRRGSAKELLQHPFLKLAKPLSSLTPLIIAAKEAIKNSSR
Chain of 4-aminobutyrate aminotransferase, mitochondrial (P80404 whole entry): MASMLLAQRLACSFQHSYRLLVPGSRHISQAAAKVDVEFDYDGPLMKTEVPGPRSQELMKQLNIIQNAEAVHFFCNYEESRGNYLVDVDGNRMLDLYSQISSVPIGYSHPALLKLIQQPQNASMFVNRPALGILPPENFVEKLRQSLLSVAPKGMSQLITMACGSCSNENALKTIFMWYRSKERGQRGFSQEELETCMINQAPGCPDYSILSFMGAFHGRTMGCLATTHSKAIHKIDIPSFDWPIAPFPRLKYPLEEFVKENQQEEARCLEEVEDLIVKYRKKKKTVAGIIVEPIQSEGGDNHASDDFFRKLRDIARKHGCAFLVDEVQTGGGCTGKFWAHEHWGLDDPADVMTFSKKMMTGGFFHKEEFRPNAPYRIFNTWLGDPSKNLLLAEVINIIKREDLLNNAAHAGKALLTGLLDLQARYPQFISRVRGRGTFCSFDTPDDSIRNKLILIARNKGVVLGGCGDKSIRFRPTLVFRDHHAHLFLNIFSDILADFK
Chain of Cyclin-dependent kinase 9 (P50750 whole entry): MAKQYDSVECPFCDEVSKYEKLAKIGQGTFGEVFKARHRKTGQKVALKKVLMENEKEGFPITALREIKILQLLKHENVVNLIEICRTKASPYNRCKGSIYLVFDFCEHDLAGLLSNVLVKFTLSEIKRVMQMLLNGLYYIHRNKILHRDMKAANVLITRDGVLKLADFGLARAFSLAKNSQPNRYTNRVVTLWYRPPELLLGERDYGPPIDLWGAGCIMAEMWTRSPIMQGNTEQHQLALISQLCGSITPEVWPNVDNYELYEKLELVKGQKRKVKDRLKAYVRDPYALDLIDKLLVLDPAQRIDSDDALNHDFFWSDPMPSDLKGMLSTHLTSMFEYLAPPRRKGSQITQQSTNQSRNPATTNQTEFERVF

For COc1cc(N(C)c2ccnc3ccc(C(F)(F)F)cc23)cc(OC)c1OC, the % binding [1] was 54% and the % binding [2] was 85%.

For CCC(=O)N1CCN(c2ccc(-n3c(=O)ccc4cnc5ccc(-c6cnc7ccccc7c6)cc5c43)cc2C(F)(F)F)CC1, the % of control [3] was 100%.

In the case of CN(C)CCOc1ccc(-c2nc(-c3ccncc3)c(-c3ccc4c(c3)CC/C4=N\O)[nH]2)cc1, the % of control [4] is reported as 94% and the % of control [5] is reported as 89%.

Work on Nc1cnc(N2CCc3cc(S(=O)(=O)Nc4c(F)cc(Cl)cc4F)cc(N4CCCC4=O)c32)nc1 [TP-020n] yielded a % of inhibition [6] of -2.65%.

With O=C(NOC[C@H](O)CO)c1ccc(F)c(F)c1Nc1ccc(I)cc1F the % of control [7] was 100%, the % of control [8] was 100% and the % of control [9] was 100%.

Molecule Cc1cc([C@@H](C)Nc2ccccc2C(=O)O)c2nc(N3CCOCC3)cc(=O)n2c1 [AZD-6482] has a % of control [10] of 100%.

In the case of CC[C@@H]1[C@H](F)C(=O)N[C@@H]1COc1nccc2cc(C(N)=O)c(OC)cc12 [ZIMLOVISERTIB], the % of inhibition [11] is reported as -20.8% and the % of inhibition [12] is reported as 4.9%.

Work on C=CC(=O)Nc1cc(-n2c(=O)ccc3cnc4ccc(-c5ccc(NS(C)(=O)=O)cc5)cc4c32)ccc1C yielded a % of control ([13]; at 1 µM) of 100% and a % of control ([13]; at 10 µM) of 77%.

Molecule CC(=O)c1cc(-c2ccccc2OCC2CC2)c2ncccn12 has a % of control [14] of 94%.

CN(C)C/C=C/C(=O)Nc1ccc(C(=O)N2CCCC(Nc3ncc(Cl)c(-c4c[nH]c5ccccc45)n3)C2)cc1 (centres undefined) was tested, and the % of control [15] was 80%.

In the case of N#Cc1cccc(-c2c[nH]c3ncnc(N4CCOCC4)c23)c1, the % of control [16] is reported as 78%, the % of inhibition [17] is reported as -15% and the % of control [18] is reported as 71%.
